Assays:
[1] = Inhibition of CD19 phosphopeptide binding to p85 N-terminal SH2 domain at 20 uM.
[2] = target: Platelet-derived growth factor receptor (Homo sapiens, UniProt P09619+P16234); assay: Inhibition of PDGF-beta receptor binding to p85 SH2-domain; format: protein-complex assay
[3] = Inhibition of CD19 phosphopeptide binding to p85 N-terminal SH2 domain at 50 uM.

| inhibition [3] | SMILES | inhibition [1] | IC50 [2] |
| --- | --- | --- | --- |
|  | CCCCN(CCCC)C(=O)[C@H](C)NC(=O)[C@@H](NC(=O)[C@H](Cc1ccc(OP(=O)(O)O)cc1)NC(C)=O)C(C)C | 98% | 77 nM |
| 50% | CCCCN(CCCC)C(=O)[C@H](C)NC(=O)[C@@H](NC(=O)[C@H](Cc1ccn(CP(=O)(O)O)c(=O)c1)NC(C)=O)C(C)C |  |  |

— ChEMBL document CHEMBL1130614, “Design and synthesis of a pyridone-based phosphotyrosine mimetic” (Bioorg Med Chem Lett, 1998)
